Assay results reported in patent US10765114B2, “4-amino-6-(pyridyl and 2-substitutedphenyl)-picolinates and 6-amino-2-(pyridyl and 2-substitutedphenyl)-pyrimidine-4-carboxylates and their use as herbicides” (Dow AgroSciences LLC, priority 2013, dated 2020).
Like-named read-outs stand apart in the source and are kept apart here.

What was measured:
[1] = system: Key Grass and Sedge Weeds as well as Grass Crops; experiment: Post-Emergent Test II (Table 6); format: in vivo; details: for Visual Growth Reduction (%) 14 Days After Application, CYPSS: CYPSS (CYPES: yellow nutsedge, Cyperus esculentus); for Visual Growth Reduction (%) 14 Days After Application, DIGSA: DIGSA: crabgrass (Digitaria sanguinalis); for Visual Growth Reduction (%) 14 Days After Application, ECHSS: ECHSS (ECHCG: barnyardgrass, Echinochloa crus-galli); for Visual Growth Reduction (%) 14 Days After Application, ORYSS: ORYSS (ORYSA: rice, Oryza sativa); for Visual Growth Reduction (%) 14 Days After Application, ORYSS / Visual Growth Reduction (%) 14 Days After Application, TRZSS / Visual Growth Reduction (%) 14 Days After Application, ZEAMX: crop; for Visual Growth Reduction (%) 14 Days After Application, SETFA: SETFA: giant foxtail (Setaria faberi); for Visual Growth Reduction (%) 14 Days After Application, SORVU: SORVU: johnsongrass (Sorghum vulgare); for Visual Growth Reduction (%) 14 Days After Application, TRZSS: TRZSS (TRZAS: wheat, spring, Triticum aestivum); for Visual Growth Reduction (%) 14 Days After Application, ZEAMX: ZEAMX: maize, corn (Zea mays)
Protocol: (§1) Seeds or nutlets of the desired test plant species were planted in Sun Gro Metro-Mix® 360 planting mixture, which typically has a pH of 6.0 to 6.8 and an organic matter content of about 30 percent, in plastic pots with a surface area of 64 square centimeters. When required to ensure good germination and healthy plants, a fungicide treatment and/or other chemical or physical treatment was applied. The plants were grown for 7-21 days in a greenhouse with an approximate 15 h photoperiod which was maintained at about 23-29° C. during the day and 22-28° C. during the night. Nutrients and water were added on a regular basis and supplemental lighting was provided with overhead metal halide 1000-Watt lamps as necessary. The plants were employed for testing when they reached the first or second true leaf stage.
(§2) A weighed amount, determined by the highest rate to be tested, of each test compound was placed in a 25 mL glass vial and was dissolved in 4 mL of a 97:3 v/v mixture of acetone and DMSO to obtain concentrated stock solutions. […] The concentrated stock solutions obtained were diluted with 20 mL of an aqueous mixture containing acetone, water, isopropyl alcohol, DMSO, Atplus 411F crop oil concentrate, and Triton® X-155 surfactant in a 48.5:39:10:1.5:1.0:0.02 v/v ratio to obtain spray solutions containing the highest application rates. Additional application rates were obtained by serial dilution of 12 mL of the high rate solution into a solution containing 2 mL of 97:3 v/v mixture of acetone and DMSO and 10 mL of an aqueous mixture containing acetone, water, isopropyl alcohol, DMSO, Atplus 411F crop oil concentrate, and Triton X-155 surfactant in a 48.5:39:10:1.5:1.0:0.02 v/v ratio to obtain ½×, ¼×, ⅛× and 1/16× rates of the high rate. Compound requirements are based upon a 12 mL application volume at a rate of 187 liters per hectare (L/ha). Formulated compounds were applied to the plant material with an overhead Mandel track sprayer equipped with 8002E nozzles calibrated to deliver 187 L/ha over an application area of 0.503 square meters at a spray height of 18 inches (43 cm) above the average plant canopy height. Control plants were sprayed in the same manner with the solvent blank.
(§3) The treated plants and control plants were placed in a greenhouse as described above and watered by subirrigation to prevent wash-off of the test compounds. After 14 days, the condition of the test plants as compared with that of the untreated plants was determined visually and scored on a scale of 0 to 100 percent where 0 corresponds to no injury and 100 corresponds to complete kill and presented as indicated in Table A. Some of the compounds tested, application rates employed, plant species tested, and results are given in Table 5.

[2] = system: Key Broadleaf Weed and Crop Species; experiment: Post-Emergent Test II (Table 5); format: in vivo; details: post-emergence, 336 h; for pest or weed control at 70 g/ha: application rate 70 (kg ai/ha; footnote: g ai/ha); for pest or weed control at 140 g/ha: application rate 140 (kg ai/ha; footnote: g ai/ha)
Protocol: as §1, §2, §3

[3] = Abutilon theophrasti, ABUTH: velvetleaf (Abutilon theophrasti), read-out: Visual Growth Reduction (%) 14 Days After Application ABUTH
[4] = Amaranthus retroflexus, AMARE: redroot pigweed (Amaranthus retroflexus), read-out: Visual Growth Reduction (%) 14 Days After Application AMARE
[5] = Brassica napus, BRSSS: oilseed rape, canola (Brassica napus), read-out: Visual Growth Reduction (%) 14 Days After Application BRSSS
[6] = Chenopodium album, CHEAL: lambsquarters (Chenopodium album), read-out: Visual Growth Reduction (%) 14 Days After Application CHEAL
[7] = Euphorbia heterophylla, EPHHL: wild poinsettia (Euphorbia heterophylla), read-out: Visual Growth Reduction (%) 14 Days After Application EPHHL
[8] = Helianthus annuus, HELAN: sunflower (Helianthus annuus), read-out: Visual Growth Reduction (%) 14 Days After Application HELAN
[9] = Viola tricolor, VIOTR: wild pansy (Viola tricolor), read-out: Visual Growth Reduction (%) 14 Days After Application VIOTR

Structure (SMILES) | Visual Growth Reduction (%) 14 Days After Application, CYPSS ([1]; 70 g ai/ha) | Visual Growth Reduction (%) 14 Days After Application, CYPSS ([1]; 140 g ai/ha) | Visual Growth Reduction (%) 14 Days After Application, DIGSA ([1]; 70 g ai/ha) | Visual Growth Reduction (%) 14 Days After Application, DIGSA ([1]; 140 g ai/ha) | Visual Growth Reduction (%) 14 Days After Application, ECHSS ([1]; 70 g ai/ha) | Visual Growth Reduction (%) 14 Days After Application, ECHSS ([1]; 140 g ai/ha) | Visual Growth Reduction (%) 14 Days After Application, ORYSS ([1]; 70 g ai/ha) | Visual Growth Reduction (%) 14 Days After Application, ORYSS ([1]; 140 g ai/ha) | Visual Growth Reduction (%) 14 Days After Application, SETFA ([1]; 70 g ai/ha) | Visual Growth Reduction (%) 14 Days After Application, SETFA ([1]; 140 g ai/ha) | Visual Growth Reduction (%) 14 Days After Application, SORVU ([1]; 70 g ai/ha) | Visual Growth Reduction (%) 14 Days After Application, SORVU ([1]; 140 g ai/ha) | Visual Growth Reduction (%) 14 Days After Application, TRZSS ([1]; 70 g ai/ha) | Visual Growth Reduction (%) 14 Days After Application, TRZSS ([1]; 140 g ai/ha) | Visual Growth Reduction (%) 14 Days After Application, ZEAMX ([1]; 70 g ai/ha) | Visual Growth Reduction (%) 14 Days After Application, ZEAMX ([1]; 140 g ai/ha) | pest or weed control at 70 g/ha [2, 3] [%] | pest or weed control at 140 g/ha [2, 3] [%] | pest or weed control at 70 g/ha [2, 4] [%] | pest or weed control at 140 g/ha [2, 4] [%] | further results
COC(=O)c1nc(-c2ccc(Cl)c(F)c2Cl)nc(N)c1OC [Compound 42, Methyl 6-amino-2-(2,4-dichloro-3-fluorophenyl)-5-methoxypyrimidine-4-carboxylate] | A (95-100) | A (95-100) | G (0-29) | G (0-29) | G (0-29) | G (0-29) | G (0-29) | G (0-29) | G (0-29) | G (0-29) | G (0-29) | F (30-44) | F (30-44) | E (45-59) | G (0-29) | G (0-29) | 95 to 100 | 95 to 100 | 95 to 100 | 95 to 100 | pest or weed control at 70 g/ha [2, 5]: 95 to 100%; pest or weed control at 140 g/ha [2, 5]: 95 to 100%; pest or weed control at 70 g/ha [2, 6]: 95 to 100%; pest or weed control at 140 g/ha [2, 6]: 95 to 100%; pest or weed control at 70 g/ha [2, 7]: 30 to 44%; pest or weed control at 140 g/ha [2, 7]: 60 to 74%; pest or weed control at 70 g/ha [2, 8]: 85 to 94%; pest or weed control at 140 g/ha [2, 8]: 85 to 94%; pest or weed control at 70 g/ha [2, 9]: 60 to 74%; pest or weed control at 140 g/ha [2, 9]: 60 to 74%
Nc1c(F)c(-c2ccc(Cl)c(F)c2Cl)nc(C(=O)O)c1Cl [Compound 16, 4-Amino-3-chloro-6-(2,4-dichloro-3-fluorophenyl)-5-fluoropicolinic acid] | A (95-100) | B (85-94) | C (75-84) | B (85-94) | B (85-94) | A (95-100) | F (30-44) | E (45-59) | A (95-100) | A (95-100) | C (75-84) | B (85-94) | B (85-94) | B (85-94) | B (85-94) | B (85-94) | 85 to 94 | 95 to 100 | 95 to 100 | 95 to 100 | pest or weed control at 70 g/ha [2, 5]: 95 to 100%; pest or weed control at 140 g/ha [2, 5]: 95 to 100%; pest or weed control at 70 g/ha [2, 6]: 95 to 100%; pest or weed control at 140 g/ha [2, 6]: 95 to 100%; pest or weed control at 70 g/ha [2, 7]: 85 to 94%; pest or weed control at 140 g/ha [2, 7]: 95 to 100%; pest or weed control at 70 g/ha [2, 8]: 95 to 100%; pest or weed control at 140 g/ha [2, 8]: 95 to 100%; pest or weed control at 70 g/ha [2, 9]: 95 to 100%; pest or weed control at 140 g/ha [2, 9]: 95 to 100%
